Experimental data from ChEMBL document CHEMBL6092178, “Discovery of a novel KV7.2/7.3 channels agonist for the treatment of neuropathic pain” (Eur J Med Chem, 2024).
The source made the active and inactive calls.

Experiments:
[1] = biological target: Glutamate [NMDA] receptor (Homo sapiens) (UniProt Q05586+Q12879+Q13224+O15399+O60391+Q14957+Q8TCU5); test: Inhibition of NMDA receptor (unknown origin) relative to control; assay type: protein-complex assay; conditions: concentration not given here
[2] = AUC (0 to infinity) in male Sprague-Dawley rat at 30 mg/kg, IG measured upto 24 hrs by LC-MS/MS analysis; assay type: ADME, organism-based; conditions: in vivo, po
[3] = AUC (0 to t) in male Sprague-Dawley rat at 30 mg/kg, IG measured upto 24 hrs by LC-MS/MS analysis; assay type: ADME, organism-based; conditions: in vivo, po
[4] = Oral bioavailability in male Sprague-Dawley rat at 30 mg/kg measured upto 24 hrs by LC-MS/MS analysis; assay type: ADME, organism-based; conditions: in vivo
Rattus norvegicus [5] = test: Antinociceptive activity against formalin-induced pain in male Sprague-Dawley rat assessed as reduction in nociceptive response at 20 mg/kg, IG pretreated for 5 mins followed by formalin challenge and measured for first 9 mins (phase I); assay type: functional, organism-based; conditions: time 14.0 min
[6] = biological target: Voltage-gated potassium channel, KQT; KCNQ2(Kv7.2)/KCNQ3(Kv7.3) (Homo sapiens) (UniProt O43526+O43525); test: Agonist activity at human KCNQ2/3 transfected in human HEK293 cells incubated for 30 mins by fluorimetric assay relative to flupirtine; assay type: cell-based; conditions: filed as agonist
Homo sapiens [7] = organism: Homo sapiens; test: Inhibition of voltage-gated sodium channel Nav 1.7 (unknown origin) relative to control; conditions: concentration not given here
[8] = Hepatotoxicity in rat assessed as change in serum total bilirubin (TBIL) level at 10 to 40 mg/kg, IG administered for 28 days and measured after 14 days; assay type: toxicity, organism-based; conditions: in vivo, po, 672 h, dose 10-40 mg/kg, time 28 day
Mus musculus = test: Induction of motor coordination impairment in mouse at 10 to 40 mg/kg, IG measured upto 120 mins by rotarod method; assay type: functional, organism-based; conditions: dose 10-40 mg/kg
[9] = Tmax in male Sprague-Dawley rat at 30 mg/kg, IG measured upto 24 hrs by LC-MS/MS analysis; assay type: ADME, organism-based; conditions: in vivo, po
Rattus norvegicus [10] = test: Antiallodynic activity against oxaliplatin-induced neuropathic pain Sprague-Dawley rat model assessed as increased mechanical withdrawal threshold at IG administration and measured after 48 hrs; assay type: functional; conditions: po
[11] = biological target: Voltage-gated potassium channel, KQT; KCNQ2(Kv7.2)/KCNQ3(Kv7.3) (Homo sapiens, UniProt O43525+O43526); test: Agonist activity at human KCNQ2/3 transfected in human HEK293 cells incubated for 30 mins by fluorimetric assay; assay type: cell-based
[12] = Acute toxicity in mouse assessed as lethal dose at iv administration measured after 7 days; assay type: organism-based; conditions: in vivo, time 7 day
[13] = AUC (0 to infinity) in male Sprague-Dawley rat at 5 mg/kg, iv measured upto 24 hrs by LC-MS/MS analysis; assay type: ADME, organism-based; conditions: in vivo
Rattus norvegicus [14] = test: Antiallodynic activity against oxaliplatin-induced neuropathic pain Sprague-Dawley rat model assessed as increased mechanical withdrawal threshold at 40 mg/kg, IG measured after 48 hrs; assay type: functional, organism-based; conditions: time 1.0 hrs
Rattus norvegicus [15] = test: Antiallodynic activity against oxaliplatin-induced neuropathic pain Sprague-Dawley rat model assessed as increased mechanical withdrawal threshold at 10 to 40 mg/kg, IG measured for 48 hrs; assay type: functional, organism-based; conditions: dose 10-40 mg/kg
Rattus norvegicus [16] = test: Antiallodynic activity in CCI-induced neuropathic pain Sprague-Dawley rat model assessed as attenuation of mechanical allodynia at 10 to 40 mg/kg, IG pretreated with compound for 1 hrs and measured on day 15 after surgery; assay type: functional, organism-based; conditions: dose 10-40 mg/kg, time 15.0 day
[17] = Hepatotoxicity in rat assessed as change in serum AST level at 10 to 40 mg/kg, IG administered for 28 days and measured after 14 days; assay type: toxicity, organism-based; conditions: in vivo, po, 672 h, dose 10-40 mg/kg, time 28 day
[18] = Hepatotoxicity in rat assessed as increase in serum ALT level at 20 to 40 mg/kg, IG administered for 28 days and measured after 14 days relative to control; assay type: toxicity, organism-based; conditions: in vivo, po, 672 h, dose 20-40 mg/kg, time 28 day
[19] = biological target: GABA-A receptor; anion channel (Homo sapiens) (UniProt P14867+P47870+P18507+P28472+P48169+Q99928+Q9UN88+P34903+O00591+O14764+Q8N1C3+P18505+P78334+P47869+P31644+Q16445); test: Inhibition of GABAA receptor (unknown origin) relative to control; assay type: protein-complex assay; conditions: concentration not given here
Rattus norvegicus [20] = test: Antiallodynic activity in CCI-induced neuropathic pain Sprague-Dawley rat model assessed as attenuation of mechanical allodynia at 20 mg/kg, IG administration pretreated with compound for 1 hrs and measured on day 15 after surgery; assay type: functional, organism-based; conditions: time 15.0 day
Rattus norvegicus [21] = test: Antiallodynic activity in spinal nerve ligation-induced neuropathic pain male Sprague-Dawley rat model assessed as mechanical withdrawal threshold at 40 mg/kg, IG pretreated with compound for 1 hr and measured on day 15 after surgery; assay type: functional, organism-based; conditions: time 15.0 day
[22] = Clearance in male Sprague-Dawley rat at 5 mg/kg, iv measured upto 24 hrs by LC-MS/MS analysis; assay type: ADME, organism-based; conditions: in vivo
[23] = biological target: Voltage-gated inwardly rectifying potassium channel KCNH2 (Homo sapiens, UniProt Q12809); test: Inhibition of hERG expressed in HEK293 cells by patch clamp method; assay type: toxicity, cell-based
Homo sapiens [24] = organism: Homo sapiens; test: Inhibition of serotonin receptor (unknown origin) relative to control; conditions: concentration not given here
[25] = Acute toxicity in mouse assessed as lethal dose at ip administration measured after 7 days; assay type: organism-based; conditions: in vivo, time 7 day
Rattus norvegicus [26] = test: Analgesic activity in streptozotocin-induced diabetic peripheral neuropathic pain male Sprague-Dawley rat model at 10 to 40 mg/kg pretreated with compound for 1 hrs and measured on day 15 after surgery; assay type: functional, organism-based; conditions: dose 10-40 mg/kg
Rattus norvegicus [27] = test: Antinociceptive activity against formalin-induced pain in male Sprague-Dawley rat assessed as reduction in nociceptive response in phase II at IG administration pretreated for 5 mins followed by formalin challenge and measured after 60 mins; assay type: functional; conditions: po, 1.083 h, time 65 min
Rattus norvegicus [28] = test: Antiallodynic activity in CCI-induced neuropathic pain Sprague-Dawley rat model assessed as attenuation of mechanical allodynia at IG administration pretreated with compound for 1 hrs and measured on day 15 after surgery; assay type: functional; conditions: dose 10-40 mg/kg
[29] = Hepatotoxicity in rat assessed as change in serum ALP level at 10 to 40 mg/kg, IG administered for 28 days and measured after 14 days; assay type: toxicity, organism-based; conditions: in vivo, po, 672 h, dose 10-40 mg/kg, time 28 day
[30] = Cmax in male Sprague-Dawley rat at 30 mg/kg, IG measured upto 24 hrs by LC-MS/MS analysis; assay type: ADME, organism-based; conditions: in vivo, po
Rattus norvegicus [31] = organism: Rattus norvegicus; test: Analgesic activity in streptozotocin-induced diabetic peripheral neuropathic pain male Sprague-Dawley rat model pretreated with compound for 1 hrs and measured on day 15 after surgery; assay type: functional; conditions: dose 10-40 mg/kg
[32] = biological target: Mu-type opioid receptor (Homo sapiens) (UniProt P35372); test: Inhibition of mu-opioid receptor (unknown origin) relative to control; conditions: concentration not given here
[33] = Cmax in male Sprague-Dawley rat at 5 mg/kg, iv measured upto 24 hrs by LC-MS/MS analysis; assay type: ADME, organism-based; conditions: in vivo
[34] = Half life in male Sprague-Dawley rat at 30 mg/kg, IG measured upto 24 hrs by LC-MS/MS analysis; assay type: ADME, organism-based; conditions: in vivo, po
[35] = biological target: Transient receptor potential cation channel subfamily V member 1 (Homo sapiens) (UniProt Q8NER1); test: Inhibition of TRPV-1 (unknown origin) relative to control; conditions: concentration not given here
[36] = Clearance in male Sprague-Dawley rat at 30 mg/kg, IG measured upto 24 hrs by LC-MS/MS analysis; assay type: ADME, organism-based; conditions: in vivo, po
Rattus norvegicus [37] = test: Antinociceptive activity against formalin-induced pain in male Sprague-Dawley rat assessed as reduction in nociceptive response at 20 mg/kg, IG pretreated for 5 mins followed by formalin challenge and measured for 10 to 60 mins (phase II); assay type: functional, organism-based
[38] = Half life in male Sprague-Dawley rat at 5 mg/kg, iv measured upto 24 hrs by LC-MS/MS analysis; assay type: ADME, organism-based; conditions: in vivo
[39] = Acute toxicity in mouse assessed as lethal dose at IG administration measured after 7 days; conditions: in vivo, po, time 7 day
Rattus norvegicus [40] = test: Antinociceptive activity against formalin-induced pain in male Sprague-Dawley rat assessed as reduction in nociceptive response at IG administration pretreated for 5 mins followed by formalin challenge and measured for 9 mins (phase I); assay type: functional; conditions: po, 14 min
[41] = biological target: Histamine H3 receptor (Homo sapiens) (UniProt Q9Y5N1); test: Inhibition of H3 receptor (unknown origin) relative to control; conditions: concentration not given here
Rattus norvegicus [42] = test: Antiallodynic activity in IG dosed spinal nerve ligation-induced neuropathic pain male Sprague-Dawley rat model assessed as mechanical withdrawal threshold pretreated with compound for 1 hr and measured on day 15 after surgery; assay type: functional
[43] = AUC (0 to t) in male Sprague-Dawley rat at 5 mg/kg, iv measured upto 24 hrs by LC-MS/MS analysis; assay type: ADME, organism-based; conditions: in vivo

Chain of Mu-type opioid receptor (Homo sapiens) (P35372 whole entry): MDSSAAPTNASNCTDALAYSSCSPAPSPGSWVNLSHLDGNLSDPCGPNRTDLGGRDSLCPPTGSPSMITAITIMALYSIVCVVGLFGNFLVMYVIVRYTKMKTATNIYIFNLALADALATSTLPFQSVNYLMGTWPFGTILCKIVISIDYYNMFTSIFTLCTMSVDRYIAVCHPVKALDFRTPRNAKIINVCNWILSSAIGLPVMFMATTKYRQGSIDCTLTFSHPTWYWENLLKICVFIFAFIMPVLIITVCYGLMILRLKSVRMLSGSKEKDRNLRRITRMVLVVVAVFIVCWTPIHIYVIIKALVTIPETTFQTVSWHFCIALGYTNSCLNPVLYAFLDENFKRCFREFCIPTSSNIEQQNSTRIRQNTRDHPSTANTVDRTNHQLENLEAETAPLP
Chain of Voltage-gated potassium channel, KQT; KCNQ2(Kv7.2)/KCNQ3(Kv7.3) (O43526 whole entry): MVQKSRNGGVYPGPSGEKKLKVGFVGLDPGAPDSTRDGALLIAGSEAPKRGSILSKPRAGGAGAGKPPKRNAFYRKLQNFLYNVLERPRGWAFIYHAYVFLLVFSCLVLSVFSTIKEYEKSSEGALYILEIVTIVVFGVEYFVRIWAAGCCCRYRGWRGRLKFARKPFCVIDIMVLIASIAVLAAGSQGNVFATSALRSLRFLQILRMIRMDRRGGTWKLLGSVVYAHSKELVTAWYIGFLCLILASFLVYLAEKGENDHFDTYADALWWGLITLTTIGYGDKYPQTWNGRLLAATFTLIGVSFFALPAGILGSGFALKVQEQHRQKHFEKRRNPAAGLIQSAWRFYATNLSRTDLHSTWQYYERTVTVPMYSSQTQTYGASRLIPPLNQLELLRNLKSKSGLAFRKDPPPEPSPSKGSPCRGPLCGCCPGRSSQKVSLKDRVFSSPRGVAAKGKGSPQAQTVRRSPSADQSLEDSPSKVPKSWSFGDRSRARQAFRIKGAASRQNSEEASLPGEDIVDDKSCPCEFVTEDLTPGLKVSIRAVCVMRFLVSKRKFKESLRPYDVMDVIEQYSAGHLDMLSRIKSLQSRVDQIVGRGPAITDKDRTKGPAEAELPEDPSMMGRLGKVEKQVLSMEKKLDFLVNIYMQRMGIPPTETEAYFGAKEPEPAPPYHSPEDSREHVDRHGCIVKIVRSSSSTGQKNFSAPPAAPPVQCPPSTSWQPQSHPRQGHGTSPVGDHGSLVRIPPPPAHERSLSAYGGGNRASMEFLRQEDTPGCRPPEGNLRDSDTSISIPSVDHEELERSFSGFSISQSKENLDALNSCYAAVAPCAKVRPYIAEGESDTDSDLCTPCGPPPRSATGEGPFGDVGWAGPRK
Chain of Voltage-gated potassium channel, KQT; KCNQ2(Kv7.2)/KCNQ3(Kv7.3) (O43525 whole entry): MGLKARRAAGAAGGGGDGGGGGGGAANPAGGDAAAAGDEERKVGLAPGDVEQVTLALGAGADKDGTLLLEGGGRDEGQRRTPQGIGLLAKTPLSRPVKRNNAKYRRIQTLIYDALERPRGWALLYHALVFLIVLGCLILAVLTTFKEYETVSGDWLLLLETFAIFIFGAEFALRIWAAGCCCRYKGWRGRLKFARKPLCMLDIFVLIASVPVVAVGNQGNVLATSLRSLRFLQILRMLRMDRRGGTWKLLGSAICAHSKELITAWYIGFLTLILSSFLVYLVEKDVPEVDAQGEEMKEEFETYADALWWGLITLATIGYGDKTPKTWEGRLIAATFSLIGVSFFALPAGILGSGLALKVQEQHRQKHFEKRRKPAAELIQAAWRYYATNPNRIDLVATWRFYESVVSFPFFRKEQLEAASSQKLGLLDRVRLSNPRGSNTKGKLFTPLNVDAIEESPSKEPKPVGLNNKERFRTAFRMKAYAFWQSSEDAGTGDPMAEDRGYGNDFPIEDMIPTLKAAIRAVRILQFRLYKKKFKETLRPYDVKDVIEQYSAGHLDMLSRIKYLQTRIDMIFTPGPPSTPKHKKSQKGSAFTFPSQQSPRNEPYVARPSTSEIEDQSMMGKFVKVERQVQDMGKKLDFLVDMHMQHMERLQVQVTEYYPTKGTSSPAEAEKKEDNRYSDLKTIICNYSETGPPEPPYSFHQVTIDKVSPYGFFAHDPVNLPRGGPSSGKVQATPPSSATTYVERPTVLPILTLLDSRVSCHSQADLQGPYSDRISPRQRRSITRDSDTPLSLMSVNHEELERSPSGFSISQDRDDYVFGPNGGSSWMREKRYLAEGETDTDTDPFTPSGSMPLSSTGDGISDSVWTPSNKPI
Chain of Transient receptor potential cation channel subfamily V member 1 (Homo sapiens) (Q8NER1 whole entry): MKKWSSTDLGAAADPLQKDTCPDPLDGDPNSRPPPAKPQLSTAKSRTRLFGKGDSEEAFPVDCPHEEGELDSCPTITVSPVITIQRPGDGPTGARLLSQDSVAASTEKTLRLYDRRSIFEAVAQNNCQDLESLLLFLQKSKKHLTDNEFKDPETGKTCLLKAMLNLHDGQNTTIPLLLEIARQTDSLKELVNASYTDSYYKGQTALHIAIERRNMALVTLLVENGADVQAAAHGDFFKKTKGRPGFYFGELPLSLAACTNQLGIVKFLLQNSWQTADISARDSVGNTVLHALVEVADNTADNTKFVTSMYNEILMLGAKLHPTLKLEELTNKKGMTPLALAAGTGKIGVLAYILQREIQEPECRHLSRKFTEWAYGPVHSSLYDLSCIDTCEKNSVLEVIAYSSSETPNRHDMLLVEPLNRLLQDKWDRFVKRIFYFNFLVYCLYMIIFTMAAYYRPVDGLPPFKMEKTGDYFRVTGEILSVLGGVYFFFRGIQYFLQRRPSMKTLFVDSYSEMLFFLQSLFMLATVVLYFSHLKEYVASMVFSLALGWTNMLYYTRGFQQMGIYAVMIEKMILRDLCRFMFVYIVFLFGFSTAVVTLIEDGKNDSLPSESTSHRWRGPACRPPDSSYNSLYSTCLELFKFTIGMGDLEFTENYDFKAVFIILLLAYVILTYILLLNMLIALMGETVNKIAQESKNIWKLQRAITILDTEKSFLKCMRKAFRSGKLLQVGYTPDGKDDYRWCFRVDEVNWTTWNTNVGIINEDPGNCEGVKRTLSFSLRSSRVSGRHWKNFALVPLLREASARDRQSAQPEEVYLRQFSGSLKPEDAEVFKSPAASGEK
Chain of Histamine H3 receptor (Homo sapiens) (Q9Y5N1 whole entry): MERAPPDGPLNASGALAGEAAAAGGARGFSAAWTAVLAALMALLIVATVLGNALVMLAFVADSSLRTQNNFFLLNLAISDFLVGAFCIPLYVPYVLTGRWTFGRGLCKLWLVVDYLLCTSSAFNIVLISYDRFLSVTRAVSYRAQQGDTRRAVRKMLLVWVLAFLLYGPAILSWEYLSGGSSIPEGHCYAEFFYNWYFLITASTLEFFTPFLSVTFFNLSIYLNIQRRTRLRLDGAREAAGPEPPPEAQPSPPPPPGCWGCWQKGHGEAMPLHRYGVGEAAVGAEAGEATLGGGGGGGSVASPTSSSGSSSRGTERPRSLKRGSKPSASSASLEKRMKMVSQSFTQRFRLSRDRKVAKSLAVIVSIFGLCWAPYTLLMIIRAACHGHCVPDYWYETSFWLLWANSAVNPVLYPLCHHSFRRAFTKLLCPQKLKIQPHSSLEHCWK
Chain of Voltage-gated inwardly rectifying potassium channel KCNH2 (Q12809 whole entry): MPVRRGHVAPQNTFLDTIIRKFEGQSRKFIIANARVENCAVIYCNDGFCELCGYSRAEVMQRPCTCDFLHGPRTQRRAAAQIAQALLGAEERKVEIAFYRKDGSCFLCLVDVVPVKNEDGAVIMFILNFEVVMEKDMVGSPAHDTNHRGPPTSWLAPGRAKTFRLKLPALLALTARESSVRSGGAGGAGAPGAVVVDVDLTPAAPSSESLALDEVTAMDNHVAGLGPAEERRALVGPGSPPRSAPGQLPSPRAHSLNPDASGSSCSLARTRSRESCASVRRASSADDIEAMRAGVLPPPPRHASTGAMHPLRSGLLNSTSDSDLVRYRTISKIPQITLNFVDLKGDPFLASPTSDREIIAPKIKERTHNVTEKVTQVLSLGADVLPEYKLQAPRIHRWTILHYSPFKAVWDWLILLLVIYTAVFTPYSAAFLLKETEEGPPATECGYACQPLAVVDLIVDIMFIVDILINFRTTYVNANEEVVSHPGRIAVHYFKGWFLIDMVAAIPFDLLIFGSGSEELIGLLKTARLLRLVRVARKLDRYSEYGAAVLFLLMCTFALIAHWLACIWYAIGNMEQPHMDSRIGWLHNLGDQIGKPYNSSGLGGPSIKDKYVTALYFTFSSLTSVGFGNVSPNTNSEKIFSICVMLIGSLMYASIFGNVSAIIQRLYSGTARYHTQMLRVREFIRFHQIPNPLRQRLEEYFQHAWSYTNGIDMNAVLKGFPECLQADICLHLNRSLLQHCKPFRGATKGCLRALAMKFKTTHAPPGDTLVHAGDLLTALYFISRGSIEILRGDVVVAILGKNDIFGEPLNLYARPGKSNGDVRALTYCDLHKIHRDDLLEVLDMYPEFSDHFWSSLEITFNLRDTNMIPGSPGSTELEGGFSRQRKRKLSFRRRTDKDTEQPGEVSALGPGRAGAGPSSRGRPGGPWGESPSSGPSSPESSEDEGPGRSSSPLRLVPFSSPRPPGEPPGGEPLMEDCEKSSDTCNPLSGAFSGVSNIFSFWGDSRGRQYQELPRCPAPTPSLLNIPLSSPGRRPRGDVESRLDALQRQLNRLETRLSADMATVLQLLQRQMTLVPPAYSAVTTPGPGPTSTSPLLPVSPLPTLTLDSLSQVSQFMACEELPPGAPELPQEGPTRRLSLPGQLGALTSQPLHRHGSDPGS

CC(=O)Nc1nc(OCc2ccc(F)cc2)ccc1N
inhibition [1]: 69.7% | AUC(0-inf) [2]: 4270 ng·h/mL | AUC(0-t) at 24 h [3]: 4110 ng·h/mL | bioavailability [4]: 46.7% | Activity (Rattus norvegicus [5]): Active | Activity [6]: 184% | inhibition (Homo sapiens [7]): < 50% | Activity [8]: Non-toxic | Activity (Mus musculus): Active | Tmax [9]: 0.17 h | ED50 (Rattus norvegicus [10]): 12.2 mg/kg | EC50 [11]: 1.03 µM | LD50 at 168 h [12]: 267 mg/kg | AUC(0-inf) [13]: 1520 ng·h/mL | Activity (Rattus norvegicus [14]): Active; Inhibition Of Pain Was Higher Than Pregabalin | Activity (Rattus norvegicus [15]): Active | Activity (Rattus norvegicus [16]): Active | Activity [17]: Non-toxic | Activity [18]: < 70% | inhibition [19]: 59.5% | Activity (Rattus norvegicus [20]): Active; Higher Value Observed Than Pregabalin | Activity (Rattus norvegicus [21]): Active; Superior Activity Observed Than Pregabalin | clearance [22]: 56.7 mL/min/kg | IC50 [23]: 448 µM | inhibition (Homo sapiens [24]): < 50% | LD50 at 168 h [25]: 421 mg/kg | Activity (Rattus norvegicus [26]): Active; Better Activity Than Pregabalin Observed | ED50 (Rattus norvegicus [27]): 14.7 mg/kg | Activity (Rattus norvegicus [28]; time 15.0 day): Dose-dependent-effect | ED50 (Rattus norvegicus [28]; po, 360 h, time 15 day): 12 mg/kg | Activity [29]: Non-toxic | Cmax [30]: 3340 ng/mL | ED50 (Rattus norvegicus [31]; 360 h, time 15 day): 9.63 mg/kg | Activity (Rattus norvegicus [31]; time 15.0 day): Dose-dependent-effect | inhibition [32]: < 50% | Cmax [33]: 2850 ng/mL | half-life [34]: 3.5 h | inhibition [35]: < 50% | CL/F [36]: 120 mL/min/kg | Activity (Rattus norvegicus [37]): Active | half-life [38]: 12.8 h | LD50 at 168 h [39]: > 2000 mg/kg | ED50 (Rattus norvegicus [40]): 16.2 mg/kg | inhibition [41]: < 50% | ED50 (Rattus norvegicus [42]; po, 360 h, time 15 day): 14.9 mg/kg | Activity (Rattus norvegicus [42]; time 15.0 day): Dose-dependent-effect | AUC(0-t) at 24 h [43]: 1100 ng·h/mL
